Data from US4604238A, “Analogs of calcitonin” (Armour Pharmaceutical Company, priority 1984, dated 1986).
Bridge positions count the residues as written; N and C are the ends. Peptide text beside a SMILES is read from it.

Key:
[1] = system: serum calcium concentration
Method: Biological Assay of Calcitonin Analogs In Vivo
Rats were divided into four groups of seven animals, and each group was assigned at random to a dose of standard or test solution. Low and high doses were chosen from the linear portion of the dose-response curve. For the salmon calcitonin standard, the values were 0.7 and 2.1 ng. peptide/100 g. body weight (BW). This dose approximates 3 and 9 MU/100 g. BW. Peptides were given by subcutaneous injection (0.2 ml/100 g. BW) and blood was withdrawn 1 hour later for serum calcium determination. Sera are processed and analyzed within two hours of collection. Results were analyzed within two hours of collection.

[2] = literature values, Experientia 32(9), 1104-1106 (1976); cited from earlier work

Molecule	hypocalcemic potency [2]	also measured
CC(C)C[C@H](NC(=O)[C@H](CCCCN)NC(=O)CNC(=O)[C@H](CC(C)C)NC(=O)[C@@H](NC(=O)[C@@H]1CSSC[C@H](N)C(=O)N[C@@H](CO)C(=O)N[C@@H](CC(N)=O)C(=O)N[C@@H](CC(C)C)C(=O)N[C@@H](CO)C(=O)N[C@@H]([C@@H](C)O)C(=O)N1)C(C)C)C(=O)N[C@@H](CO)C(=O)N[C@@H](CCC(N)=O)C(=O)N[C@@H](CCC(=O)O)C(=O)N[C@@H](CC(C)C)C(=O)N[C@@H](Cc1c[nH]cn1)C(=O)N[C@@H](CCCCN)C(=O)N[C@@H](CC(C)C)C(=O)N[C@@H](CCC(N)=O)C(=O)N[C@H](C(=O)N[C@@H](Cc1ccc(O)cc1)C(=O)N1CCC[C@H]1C(=O)N[C@@H](CCCNC(=N)N)C(=O)N[C@H](C(=O)N[C@@H](CC(N)=O)C(=O)N[C@H](C(=O)NCC(=O)N[C@@H](CO)C(=O)NCC(=O)N[C@H](C(=O)N1CCC[C@H]1C(N)=O)[C@@H](C)O)[C@@H](C)O)[C@@H](C)O)[C@@H](C)O [salmon calcitonin, Salmon calcitonin]		potency of the standard salmon calcitonin used ([1]; independently determined content of the standard): greater than 4,000 IU/mg
CC(C)C[C@H](NC(=O)CNC(=O)[C@@H]1CSSC[C@H](N)C(=O)NCC(=O)N[C@@H](CO)C(=O)N[C@@H](CC(C)C)C(=O)N[C@@H](CO)C(=O)N[C@@H]([C@@H](C)O)C(=O)N1)C(=O)NCC(=O)N[C@@H](CCCCN)C(=O)N[C@@H](CC(C)C)C(=O)N[C@@H](CO)C(=O)N[C@@H](CCC(N)=O)C(=O)N[C@@H](CCC(=O)O)C(=O)N[C@@H](CC(C)C)C(=O)N[C@@H](Cc1c[nH]cn1)C(=O)N[C@@H](CCCCN)C(=O)N[C@@H](CC(C)C)C(=O)N[C@@H](CCC(N)=O)C(=O)N[C@H](C(=O)N1CCC[C@H]1C(=O)N[C@@H](CCCNC(=N)N)C(=O)N[C@H](C(=O)N[C@@H](CC(N)=O)C(=O)N[C@H](C(=O)NCC(=O)N[C@@H](CO)C(=O)NCC(=O)N[C@H](C(=O)N1CCC[C@H]1C(N)=O)[C@@H](C)O)[C@@H](C)O)[C@@H](C)O)[C@@H](C)O [[Gly^2,Ser^3,Gly^8,des-Tyr^22]SCT, [Gly^2,Ser^3,Gly^8,des-Tyr^22]salmon calcitonin] (H-CGSLSTCGLGKLSQELHKLQTPRTNTGSGTP-NH2; disulfide 1-7)		biological potency ([1]; rat, in vivo, sc): 8600 IU/mg
eel calcitonin [synthetic eel calcitonin]	around 4300 IU/mg	
(1,7α-L-aminosuberic acid)eel calcitonin	about 3400 IU/mg	
